{"source": "PubChem BioAssay AID2393", "about": "(NMMLSC, 2010)", "test_in_all_cases": "small GTPase panel, fluorescent GTP binding blockade – biochemical, Mg buffer, constant GTP, RhoA, Rac1, Cdc42, mechanism study for Ras-family GTPase inhibitor project, profiling panel (AID 2393);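 for EC50: EC50 marks half change in GTP binding and may reflect gain or loss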", "details_in_all_cases": "GST-GTPase beads, BODIPY-GTP binding, flow cytometry; for GTP binding remaining (% of DMSO): at 100 µM (top of the series)", "key": {"[1]": {"target": "Cell division control protein 42 homolog (Homo sapiens) (UniProt P60953)"}, "[2]": {"target": "Ras-related C3 botulinum toxin substrate 1 (Homo sapiens) (UniProt P63000)"}, "[3]": {"target": "Transforming protein RhoA (Homo sapiens) (UniProt P61586)"}}, "note": "The source made the active and inactive calls.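 Rule for the calls: active = none, because compounds meeting the potency rule were filed inconclusive for hitting several proteins; inconclusive = EC50 under 20 µM with over 15% binding change; inactive = the rest.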"}
{"smiles": "NS(=O)(=O)c1ccc(N2N=C(c3ccccc3)CC2c2ccccc2)cc1", "note": "(stereo not given)", "values": [{"measurement": "EC50", "setting": "[1]; Cdc42ACT", "value": 13.1, "unit": "µM"}, {"measurement": "EC50", "setting": "[1]; Cdc42WT", "value": 13.4, "unit": "µM"}, {"measurement": "GTP binding remaining (% of DMSO)", "setting": "[2]; Rac1ACT", "value": "inactive"}, {"measurement": "GTP binding remaining (% of DMSO)", "setting": "[2]; Rac1WT", "value": "inactive"}, {"measurement": "GTP binding remaining (% of DMSO)", "setting": "[3]; RhoACT", "value": "inactive"}, {"measurement": "GTP binding remaining (% of DMSO)", "setting": "[3]; RhoWT", "value": "inactive"}]}
{"smiles": "COc1ccc(C2CC(c3cccc(OC)c3)=NN2c2ccc(S(N)(=O)=O)cc2)cc1", "note": "(stereo not given)", "values": [{"measurement": "EC50", "setting": "[1]; Cdc42ACT", "value": "inactive"}, {"measurement": "EC50", "setting": "[1]; Cdc42WT", "value": 1.9, "unit": "µM"}, {"measurement": "GTP binding remaining (% of DMSO)", "setting": "[2]; Rac1ACT", "value": "inactive"}, {"measurement": "GTP binding remaining (% of DMSO)", "setting": "[2]; Rac1WT", "value": "inactive"}, {"measurement": "GTP binding remaining (% of DMSO)", "setting": "[3]; RhoACT", "value": "inactive"}, {"measurement": "GTP binding remaining (% of DMSO)", "setting": "[3]; RhoWT", "value": "inactive"}]}
{"smiles": "NS(=O)(=O)c1ccc(N2N=C(c3ccccc3)CC2c2cccc(Br)c2)cc1", "note": "(stereo not given)", "values": [{"measurement": "EC50", "setting": "[1]; Cdc42ACT", "value": 5.86, "unit": "µM"}, {"measurement": "EC50", "setting": "[1]; Cdc42WT", "value": 6.95, "unit": "µM"}, {"measurement": "GTP binding remaining (% of DMSO)", "setting": "[2]; Rac1ACT", "value": "inactive"}, {"measurement": "GTP binding remaining (% of DMSO)", "setting": "[2]; Rac1WT", "value": "inactive"}, {"measurement": "GTP binding remaining (% of DMSO)", "setting": "[3]; RhoACT", "value": "inactive"}, {"measurement": "GTP binding remaining (% of DMSO)", "setting": "[3]; RhoWT", "value": "inactive"}]}
{"smiles": "COc1ccc(C2CC(c3ccc(Br)cc3)=NN2c2ccc(S(N)(=O)=O)cc2)cc1", "note": "(stereo not given)", "values": [{"measurement": "GTP binding remaining (% of DMSO)", "setting": "[1]; Cdc42ACT", "value": "inactive"}, {"measurement": "GTP binding remaining (% of DMSO)", "setting": "[1]; Cdc42WT", "value": "inactive"}, {"measurement": "GTP binding remaining (% of DMSO)", "setting": "[2]; Rac1ACT", "value": "inactive"}, {"measurement": "GTP binding remaining (% of DMSO)", "setting": "[2]; Rac1WT", "value": "inactive"}, {"measurement": "GTP binding remaining (% of DMSO)", "setting": "[3]; RhoACT", "value": "inactive"}, {"measurement": "GTP binding remaining (% of DMSO)", "setting": "[3]; RhoWT", "value": "inactive"}]}
{"smiles": "COc1ccc(C2=NN(c3ccc(S(N)(=O)=O)cc3)C(c3ccc(OC)cc3)C2)cc1", "note": "(stereo not given)", "values": [{"measurement": "EC50", "setting": "[1]; Cdc42ACT", "value": "inactive"}, {"measurement": "GTP binding remaining (% of DMSO)", "setting": "[1]; Cdc42WT", "value": "inactive"}, {"measurement": "GTP binding remaining (% of DMSO)", "setting": "[2]; Rac1ACT", "value": "inactive"}, {"measurement": "GTP binding remaining (% of DMSO)", "setting": "[2]; Rac1WT", "value": "inactive"}, {"measurement": "GTP binding remaining (% of DMSO)", "setting": "[3]; RhoACT", "value": "inactive"}, {"measurement": "GTP binding remaining (% of DMSO)", "setting": "[3]; RhoWT", "value": "inactive"}]}
{"smiles": "COc1ccc(C2CC(c3cccc(C(F)(F)F)c3)=NN2c2ccc(S(N)(=O)=O)cc2)cc1", "note": "(stereo not given)", "values": [{"measurement": "GTP binding remaining (% of DMSO)", "setting": "[1]; Cdc42ACT", "value": "inactive"}, {"measurement": "GTP binding remaining (% of DMSO)", "setting": "[1]; Cdc42WT", "value": "inactive"}, {"measurement": "GTP binding remaining (% of DMSO)", "setting": "[2]; Rac1ACT", "value": "inactive"}, {"measurement": "GTP binding remaining (% of DMSO)", "setting": "[2]; Rac1WT", "value": "inactive"}, {"measurement": "GTP binding remaining (% of DMSO)", "setting": "[3]; RhoACT", "value": "inactive"}, {"measurement": "GTP binding remaining (% of DMSO)", "setting": "[3]; RhoWT", "value": "inactive"}]}
{"smiles": "NS(=O)(=O)c1ccc(N2N=C(c3ccccc3)CC2c2cccc(Cl)c2)cc1", "note": "(stereo not given)", "values": [{"measurement": "EC50", "setting": "[1]; Cdc42ACT", "value": 5.08, "unit": "µM"}, {"measurement": "EC50", "setting": "[1]; Cdc42WT", "value": 3.95, "unit": "µM"}, {"measurement": "EC50", "setting": "[2]; Rac1ACT", "value": "inactive"}, {"measurement": "EC50", "setting": "[2]; Rac1WT", "value": "inactive"}, {"measurement": "GTP binding remaining (% of DMSO)", "setting": "[3]; RhoACT", "value": "inactive"}, {"measurement": "GTP binding remaining (% of DMSO)", "setting": "[3]; RhoWT", "value": "inactive"}]}
{"smiles": "Cc1ccc(C2CC(c3ccccc3)=NN2c2ccc(S(N)(=O)=O)cc2)cc1", "note": "(stereo not given)", "values": [{"measurement": "EC50", "setting": "[1]; Cdc42ACT", "value": 5.07, "unit": "µM"}, {"measurement": "EC50", "setting": "[1]; Cdc42WT", "value": 4.36, "unit": "µM"}, {"measurement": "GTP binding remaining (% of DMSO)", "setting": "[2]; Rac1ACT", "value": "inactive"}, {"measurement": "EC50", "setting": "[2]; Rac1WT", "value": "inactive"}, {"measurement": "GTP binding remaining (% of DMSO)", "setting": "[3]; RhoACT", "value": "inactive"}, {"measurement": "GTP binding remaining (% of DMSO)", "setting": "[3]; RhoWT", "value": "inactive"}]}
{"smiles": "NS(=O)(=O)c1ccc(N2N=C(c3ccccc3)CC2c2ccc(Br)cc2)cc1", "note": "(stereo not given)", "values": [{"measurement": "EC50", "setting": "[1]; Cdc42ACT", "value": 1.65, "unit": "µM"}, {"measurement": "EC50", "setting": "[1]; Cdc42WT", "value": 1.49, "unit": "µM"}, {"measurement": "GTP binding remaining (% of DMSO)", "setting": "[2]; Rac1ACT", "value": "inactive"}, {"measurement": "EC50", "setting": "[2]; Rac1WT", "value": "inactive"}, {"measurement": "GTP binding remaining (% of DMSO)", "setting": "[3]; RhoACT", "value": "inactive"}, {"measurement": "GTP binding remaining (% of DMSO)", "setting": "[3]; RhoWT", "value": "inactive"}]}
{"smiles": "COc1cccc(C2CC(c3ccccc3)=NN2c2ccc(S(N)(=O)=O)cc2)c1", "note": "(stereo not given)", "values": [{"measurement": "EC50", "setting": "[1]; Cdc42ACT", "value": 4.65, "unit": "µM"}, {"measurement": "EC50", "setting": "[1]; Cdc42WT", "value": 4.69, "unit": "µM"}, {"measurement": "GTP binding remaining (% of DMSO)", "setting": "[2]; Rac1ACT", "value": "inactive"}, {"measurement": "GTP binding remaining (% of DMSO)", "setting": "[2]; Rac1WT", "value": "inactive"}, {"measurement": "EC50", "setting": "[3]; RhoACT", "value": "inactive"}, {"measurement": "GTP binding remaining (% of DMSO)", "setting": "[3]; RhoWT", "value": "inactive"}]}
